Values of other authors as cited in PubChem BioAssay AID1259409 (Chemical Carcinogenesis Research Information System (CCRIS), 2018).

Tested on: rodent chemically induced tumor inhibition, incidence and multiplicity
Assay: CCRIS tumor inhibitor studies
Conditions: Route [Inhibitor]: ORAL

Question: Which “tumour outcome (control, treated, inhibition, significance)” value (Carcinogen: DIETHYLNITROSAMINE, 55-18-5, Dose [Inhibitor]: 0, 10 MG/L IN DRINKING WATER FOR DURATION OF STUDY BEGINNING 4 D POST CARCINOGEN TREATMENT (STUDY DURATION: 6 MO), Species: RAT, Strain/Sex: BD6/FEMALE, Target Tissue: Type of Lesion: ESOPHAGUS: TUMOR, Dose [Carcinogen]: 80 MG/KG BW 1/WK FOR 9 WK, Promoter: NONE USED) does the source give for `O=[Se](O)O` here?
Answer: 29%, 18%, 38%, not significant

Question: What about the “tumour outcome (control, treated, inhibition, significance)” value (Carcinogen: DIETHYLNITROSAMINE, 55-18-5, Dose [Inhibitor]: 0, 10 MG/L IN DRINKING WATER FOR DURATION OF STUDY BEGINNING 7 D PRIOR TO CARCINOGEN TREATMENT (STUDY DURATION: 6 MO), Species: RAT, Strain/Sex: BD6/FEMALE, Target Tissue: Type of Lesion: ESOPHAGUS: TUMOR, Dose [Carcinogen]: 80 MG/KG BW 1/WK FOR 7 WK, Promoter: NONE USED) of the same compound?
Answer: 25%, 14%, 44%, not significant

Question: And the “tumour outcome (control, treated, inhibition, significance)” value (Carcinogen: DIETHYLNITROSAMINE, 55-18-5, Dose [Inhibitor]: 0, 10 MG/L IN DRINKING WATER FOR DURATION OF STUDY BEGINNING 7 D PRIOR TO CARCINOGEN TREATMENT (STUDY DURATION: 6 MO), Species: RAT, Strain/Sex: BD6/FEMALE, Target Tissue: Type of Lesion: LIVER: TUMOR, Dose [Carcinogen]: 80 MG/KG BW 1/WK FOR 7 WK, Promoter: NONE USED)?
Answer: 64%, 31%, 52%, p<0.05

Question: What about the “tumour outcome (control, treated, inhibition, significance)” value (Carcinogen: DIETHYLNITROSAMINE, 55-18-5, Dose [Inhibitor]: 0, 10 MG/L IN DRINKING WATER FOR DURATION OF STUDY BEGINNING 7 D PRIOR TO FIRST CARCINOGEN DOSE (STUDY DURATION: 6 MO), Species: RAT, Strain/Sex: BD6/FEMALE, Target Tissue: Type of Lesion: ESOPHAGUS: TUMOR, Dose [Carcinogen]: 80 MG/KG BW 1/WK FOR 8 WK, Promoter: NONE USED) of the same compound?
Answer: 31%, 39%, -26%, not significant

Question: What about the “tumour outcome (control, treated, inhibition, significance)” value (Carcinogen: DIETHYLNITROSAMINE, 55-18-5, Dose [Inhibitor]: 0, 10 MG/L IN DRINKING WATER FOR DURATION OF STUDY BEGINNING 7 D PRIOR TO FIRST CARCINOGEN DOSE (STUDY DURATION: 6 MO), Species: RAT, Strain/Sex: BD6/FEMALE, Target Tissue: Type of Lesion: ESOPHAGUS: TUMOR, Dose [Carcinogen]: 100 MG/L IN DRINKING WATER FOR 3.5 MO, Promoter: NONE USED) of the same compound?
Answer: 37%, 25%, 32%, not significant

Question: And the “tumour outcome (control, treated, inhibition, significance)” value (Carcinogen: DIETHYLNITROSAMINE, 55-18-5, Dose [Inhibitor]: 0, 10 MG/L IN DRINKING WATER FOR DURATION OF STUDY BEGINNING 7 D PRIOR TO FIRST CARCINOGEN DOSE (STUDY DURATION: 6 MO), Species: RAT, Strain/Sex: BD6/FEMALE, Target Tissue: Type of Lesion: LIVER: TUMOR, Dose [Carcinogen]: 80 MG/KG BW 1/WK FOR 8 WK, Promoter: NONE USED)?
Answer: 94%, 69%, 27%, not significant

Question: And the “tumour outcome (control, treated, inhibition, significance)” value (Carcinogen: DIETHYLNITROSAMINE, 55-18-5, Dose [Inhibitor]: 0, 10 MG/L IN DRINKING WATER FOR DURATION OF STUDY BEGINNING 7 D PRIOR TO FIRST CARCINOGEN DOSE (STUDY DURATION: 6 MO), Species: RAT, Strain/Sex: BD6/FEMALE, Target Tissue: Type of Lesion: LIVER: TUMOR, Dose [Carcinogen]: 100 MG/L IN DRINKING WATER FOR 3.5 MO, Promoter: NONE USED)?
Answer: 95%, 94%, 1%, not significant

Question: What about the “tumour outcome (control, treated, inhibition, significance)” value (Carcinogen: DIETHYNITROSAMINE, 55-18-5, Dose [Inhibitor]: 0, 1 MG/L IN DRINKING WATER FOR DURATION OF STUDY BEGINNING 7 D PRIOR TO FIRST CARCINOGEN DOSE (STUDY DURATION: 6 MO), Species: RAT, Strain/Sex: BD6/FEMALE, Target Tissue: Type of Lesion: LIVER: TUMOR, Dose [Carcinogen]: 80 MG/KG BW 1/WK FOR 8 WK, Promoter: NONE USED) of the same compound?
Answer: 85%, 75%, 12%, not significant

Question: What about the “tumour outcome (control, treated, inhibition, significance)” value (Carcinogen: ETHYLNITROSOUREA, 759-73-9, Dose [Inhibitor]: 0, 4 MG/L TAP DRINKING WATER FOR LIFE (STUDY DURATION: 310 D), Species: RAT, Strain/Sex: ALBINO/MALE,FEMALE, Target Tissue: Type of Lesion: KIDNEY: MESENCHYMAL TUMOR OR ADENOCARCINOMA, Dose [Carcinogen]: 75 MG/KG IN SALINE BY INTRAVENOUS INJECTION ONCE 21 D AFTER CONCEPTION) of the same compound?
Answer: 33/89 (37%), 20/55 (36%), 3%, not calculated

Question: What about the “tumour outcome (control, treated, inhibition, significance)” value (Carcinogen: ETHYLNITROSOUREA, 759-73-9, Dose [Inhibitor]: 0, 4 MG/L TAP DRINKING WATER FOR LIFE (STUDY DURATION: 310 D), Species: RAT, Strain/Sex: ALBINO/MALE,FEMALE, Target Tissue: Type of Lesion: SPINAL CORD: TUMOR, Dose [Carcinogen]: 75 MG/KG IN SALINE BY INTRAVENOUS INJECTION ONCE 21 D AFTER CONCEPTION) of the same compound?
Answer: 55/89 (62%), 32/55 (58%), 6%, not calculated

Question: And the “tumour outcome (control, treated, inhibition, significance)” value (Carcinogen: ETHYLNITROSOUREA, 759-73-9, Dose [Inhibitor]: 0, 4 MG/L TAP DRINKING WATER FOR LIFE (STUDY DURATION: 310 D), Species: RAT, Strain/Sex: ALBINO/MALE/FEMALE, Target Tissue: Type of Lesion: BRAIN: GLIOMA OR ASTROCYTOMA, Dose [Carcinogen]: 75 MG/KG IN SALINE BY INTRAVENOUS INJECTION ONCE 21 D AFTER CONCEPTION)?
Answer: 54/89 (61%), 33/55 (60%), 2%, not calculated

Question: And the “tumour outcome (control, treated, inhibition, significance)” value (Carcinogen: ETHYLNITROSOUREA, 759-73-9, Dose [Inhibitor]: 0, 4 MG/L TAP DRINKING WATER FOR LIFE (STUDY DURATION: 319 D), Species: RAT, Strain/Sex: ALBINO/MALE,FEMALE, Target Tissue: Type of Lesion: NERVOUS SYSTEM: SCHWANNOMA, Dose [Carcinogen]: 75 MG/KG IN SALINE BY INTRAVENOUS INJECTION ONCE 21 D AFTER CONCEPTION)?
Answer: 37/89 (42%), 21/55 (38%), 10%, not calculated

Question: What about the “tumour outcome (control, treated, inhibition, significance)” value (Carcinogen: METHYLAZOXYMETHANOL, 590-96-5, Dose [Inhibitor]: 4 PPM IN DRINKING WATER DAILY FOR 20 WK STARTING SIMULTANEOUSLY WITH CARCINOGEN TREATMENT AND CONTINUING THROUGH END OF, Species: RAT, Strain/Sex: SPRAGUE-DAWLEY/MALE, Target Tissue: Type of Lesion: COLON: ADENOCARCINOMA, Dose [Carcinogen]: 20 MG/KG BW 1/WK FOR 20 WK, Promoter: NONE USED) of the same compound?
Answer: 14/14 (100%), 14/15 (93%), 7%, not significant

Question: And the “tumour outcome (control, treated, inhibition, significance)” value (Carcinogen: METHYLCHOLANTHRENE, 56-49-5, Dose [Inhibitor]: 0, 1 PPM IN DRINKING WATER FOR 13 WK BEGINNING 1 WK PRIOR TO CARCINOGEN TREATMENT (STUDY DURATION: 13 WK), Species: MOUSE, Strain/Sex: SWISS/FEMALE, Target Tissue: Type of Lesion: UTERUS: SQUAMOUS CELL TUMOR, Dose [Carcinogen]: 600 UG IN BEESWAX IMPREGNATED COTTON THREAD INSERTED INTO UTERINE CERVIX CANAL, Promoter: NONE USED)?
Answer: 18/25 (72%), 13/35 (37%), 49%, p<0.05

Question: And the “tumour outcome (control, treated, inhibition, significance)” value (Carcinogen: N'-NITROSOBIS(2-OXOPROPYL)AMINE, 60599-38-4, Dose [Inhibitor]: 0.1, 4 PPM (43.5 UG/D) IN DRINKING WATER BEGINNING 8 WK PRIOR TO FIRST CARCINOGEN DOSE AND CONTINUING FOR DURATION OF ST, Species: HAMSTER, Strain/Sex: SYRIAN/FEMALE, Target Tissue: Type of Lesion: PANCREAS: TUMOR, Dose [Carcinogen]: 10 MG/KG IN 0.9% SALINE 1/WK FOR 10 WK, Promoter: NONE USED)?
Answer: 88%, 88%, 0%
